# Laboratory results reported in PubChem BioAssay AID248 (DTP/NCI, 2004).
# Several values for one entry are separate records, joined by “and”; a condition that tells them apart may be missing. Equal values may be shown once. Inconclusive results and toxic doses are left out.
# System: L1210 leukemia ip in BDF1 mice, survival T/C
# Assay: NCI In Vivo Anticancer Drug Screen. Data for tumor model L1210 Leukemia (intraperitoneal) in B6D2F1 (BDF1) mice
# Conditions: higher = longer survival
# Method in brief: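 Transplantable tumor model; survival measured in treated vs vehicle control mice. Value = treated/control.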
# [1] = endpoint: mean survival time, dose: 100.0 mg/kg/injection, schedule: Q01DX001 (ip), vehicle: saline
# [2] = endpoint: mean survival time, dose: 200.0 mg/kg/injection, schedule: Q01DX001 (ip), vehicle: saline
# [3] = endpoint: mean survival time, dose: 400.0 mg/kg/injection, schedule: Q01DX001 (ip), vehicle: saline
compound,measurement,setting,value
CC1CN1P(=O)(Oc1cccc2ccccc12)N1CC1C (stereo unspecified),T/C,"endpoint: mean survival time, dose: 50.0 mg/kg/injection, schedule: Q01DX001 (ip), vehicle: saline",96 % of control
same,T/C,[1],100 % of control
same,T/C,"endpoint: mean survival time, dose: 178.0 mg/kg/injection, schedule: Q01DX001 (ip), vehicle: saline",101 % of control and 109 % of control
same,T/C,[2],113 % of control
same,T/C,"endpoint: mean survival time, dose: 267.0 mg/kg/injection, schedule: Q01DX001 (ip), vehicle: saline",101 % of control and 103 % of control
same,T/C,[3],101 % of control and 104 % of control
same,T/C,"endpoint: mean survival time, dose: 600.0 mg/kg/injection, schedule: Q01DX001 (ip), vehicle: saline",110 % of control and 116 % of control
CSc1ccccc1NC(=O)c1cccc([N+](=O)[O-])c1,T/C,"endpoint: mean survival time, dose: 100.0 mg/kg/injection, schedule: Q04DX002 (ip), vehicle: Klucel (hydroxypropylcellulose) (HPC)",105 % of control
same,T/C,"endpoint: mean survival time, dose: 200.0 mg/kg/injection, schedule: Q04DX002 (ip), vehicle: Klucel (hydroxypropylcellulose) (HPC)",99 % of control
same,T/C,"endpoint: mean survival time, dose: 400.0 mg/kg/injection, schedule: Q04DX002 (ip), vehicle: Klucel (hydroxypropylcellulose) (HPC)",86 % of control
O=C(Nc1ccccc1F)c1ccco1,T/C,"endpoint: mean survival time, dose: 100.0 mg/kg/injection, schedule: Q01DX009 (ip), vehicle: Klucel (hydroxypropylcellulose) (HPC)",100 % of control
same,T/C,"endpoint: mean survival time, dose: 200.0 mg/kg/injection, schedule: Q01DX009 (ip), vehicle: Klucel (hydroxypropylcellulose) (HPC)",103 % of control
Cc1c(C(=O)O)nnn1/C=C/c1ccccc1,T/C,"endpoint: mean survival time, dose: 100.0 mg/kg/injection, schedule: Q04DX003 (ip), vehicle: acetone",103 % of control
same,T/C,"endpoint: mean survival time, dose: 200.0 mg/kg/injection, schedule: Q04DX003 (ip), vehicle: acetone",87 % of control
COc1cc2c(cc1OC)C13CCN4CC5=CCOC6CC(=O)N2C1C6C5CC43O (stereo unspecified),T/C,[1],89 % of control
same,T/C,[2],86 % of control
same,T/C,[3],89 % of control
CCOC(=O)C(CC(OCC)OCC)C1=NC(C)(C)CC(C)O1 (stereo unspecified),T/C,"endpoint: mean survival time, dose: 100.0 mg/kg/injection, schedule: Q01DX001 (ip), vehicle: Klucel (hydroxypropylcellulose) (HPC)",105 % of control
same,T/C,"endpoint: mean survival time, dose: 200.0 mg/kg/injection, schedule: Q01DX001 (ip), vehicle: Klucel (hydroxypropylcellulose) (HPC)",89 % of control
same,T/C,"endpoint: mean survival time, dose: 400.0 mg/kg/injection, schedule: Q01DX001 (ip), vehicle: Klucel (hydroxypropylcellulose) (HPC)",100 % of control
O=C1C(=O)c2cc(Cl)ccc2-c2ccccc21,T/C,"endpoint: mean survival time, dose: 50.0 mg/kg/injection, schedule: Q01DX001 (ip), vehicle: carboxymethylcellulose (CMC)",100 % of control
same,T/C,"endpoint: mean survival time, dose: 100.0 mg/kg/injection, schedule: Q01DX001 (ip), vehicle: carboxymethylcellulose (CMC)",102 % of control
same,T/C,"endpoint: mean survival time, dose: 200.0 mg/kg/injection, schedule: Q01DX001 (ip), vehicle: carboxymethylcellulose (CMC)",100 % of control
same,T/C,"endpoint: mean survival time, dose: 400.0 mg/kg/injection, schedule: Q01DX001 (ip), vehicle: carboxymethylcellulose (CMC)",105 % of control
CC(C)[C@]12O[C@H]1[C@@H]1O[C@]13[C@]1(O[C@H]1C[C@H]1C4=C(C(=O)OC4)[C@@H](O)C[C@@]13C)[C@@H]2O,T/C,"endpoint: mean survival time, dose: 2.4 micrograms/kg/injection, schedule: Q01DX009 (oral), vehicle: Klucel (hydroxypropylcellulose) (HPC)",105 % of control
same,T/C,"endpoint: mean survival time, dose: 4.8 micrograms/kg/injection, schedule: Q01DX009 (oral), vehicle: Klucel (hydroxypropylcellulose) (HPC)",102 % of control
same,T/C,"endpoint: mean survival time, dose: 9.5 micrograms/kg/injection, schedule: Q01DX009 (oral), vehicle: Klucel (hydroxypropylcellulose) (HPC)",101 % of control
same,T/C,"endpoint: mean survival time, dose: 13.0 micrograms/kg/injection, schedule: Q01DX009 (ip), vehicle: saline",94 % of control and 111 % of control
same,T/C,"endpoint: mean survival time, dose: 19.0 micrograms/kg/injection, schedule: Q01DX009 (oral), vehicle: Klucel (hydroxypropylcellulose) (HPC)",116 % of control
same,T/C,"endpoint: mean survival time, dose: 25.0 micrograms/kg/injection, schedule: Q01DX009 (ip), vehicle: saline",108 % of control and 110 % of control
same,T/C,"endpoint: mean survival time, dose: 38.0 micrograms/kg/injection, schedule: Q01DX009 (oral), vehicle: Klucel (hydroxypropylcellulose) (HPC)",107 % of control
same,T/C,"endpoint: mean survival time, dose: 38.0 micrograms/kg/injection, schedule: Q01DX009 (oral), vehicle: saline + alcohol",103 % of control
same,T/C,"endpoint: mean survival time, dose: 100.0 micrograms/kg/injection, schedule: Q01DX009 (ip), vehicle: saline",150 % of control and 159 % of control
same,T/C,"endpoint: mean survival time, dose: 200.0 micrograms/kg/injection, schedule: Q01DX009 (ip), vehicle: saline",198 % of control
same,T/C,"endpoint: median survival time, dose: 0.06 mg/kg/injection, schedule: Q01DX009 (ip), vehicle: saline + alcohol",113 % of control
same,T/C,"endpoint: median survival time, dose: 0.06 mg/kg/injection, schedule: Q01DX009 (ip), vehicle: saline with Tween-80",114 % of control and 124 % of control
same,T/C,"endpoint: median survival time, dose: 0.06 mg/kg/injection, schedule: Q01DX009 (sc), vehicle: saline + alcohol",102 % of control
same,T/C,"endpoint: median survival time, dose: 0.06 mg/kg/injection, schedule: Q04DX003 (ip), vehicle: saline + alcohol",98 % of control
same,T/C,"endpoint: median survival time, dose: 0.12 mg/kg/injection, schedule: Q01DX009 (sc), vehicle: saline + alcohol",107 % of control
same,T/C,"endpoint: median survival time, dose: 0.12 mg/kg/injection, schedule: Q04DX003 (ip), vehicle: saline + alcohol",106 % of control
same,T/C,"endpoint: median survival time, dose: 0.12 mg/kg/injection, schedule: Q08DX002 (ip), vehicle: saline + alcohol",102 % of control
same,T/C,"endpoint: median survival time, dose: 0.13 mg/kg/injection, schedule: Q01DX009 (ip), vehicle: saline + alcohol",156 % of control
same,T/C,"endpoint: median survival time, dose: 0.13 mg/kg/injection, schedule: Q01DX009 (oral), vehicle: saline + alcohol",100 % of control and 120 % of control
same,T/C,"endpoint: median survival time, dose: 0.25 mg/kg/injection, schedule: Q01DX001 (ip), vehicle: saline + alcohol",102 % of control
same,T/C,"endpoint: median survival time, dose: 0.25 mg/kg/injection, schedule: Q01DX009 (ip), vehicle: saline + alcohol",178 % of control and 195 % of control
same,T/C,"endpoint: median survival time, dose: 0.25 mg/kg/injection, schedule: Q01DX009 (ip), vehicle: saline with Tween-80",185 % of control and 202 % of control
same,T/C,"endpoint: median survival time, dose: 0.25 mg/kg/injection, schedule: Q01DX009 (sc), vehicle: saline + alcohol",151 % of control
same,T/C,"endpoint: median survival time, dose: 0.25 mg/kg/injection, schedule: Q04DX003 (ip), vehicle: saline + alcohol",107 % of control
same,T/C,"endpoint: median survival time, dose: 0.25 mg/kg/injection, schedule: Q08DX002 (ip), vehicle: saline + alcohol",109 % of control
same,T/C,"endpoint: median survival time, dose: 0.5 mg/kg/injection, schedule: Q01DX001 (ip), vehicle: saline + alcohol",113 % of control
same,T/C,"endpoint: median survival time, dose: 0.5 mg/kg/injection, schedule: Q01DX009 (ip), vehicle: saline + alcohol",95 % of control
same,T/C,"endpoint: median survival time, dose: 0.5 mg/kg/injection, schedule: Q04DX003 (ip), vehicle: saline + alcohol",113 % of control
same,T/C,"endpoint: median survival time, dose: 0.5 mg/kg/injection, schedule: Q08DX002 (ip), vehicle: saline + alcohol",114 % of control
same,T/C,"endpoint: median survival time, dose: 8.0 micrograms/kg/injection, schedule: Q03HX024 (ip), vehicle: saline + alcohol",104 % of control
same,T/C,"endpoint: median survival time, dose: 8.0 micrograms/kg/injection, schedule: Q03HX024 (sc), vehicle: saline + alcohol",94 % of control
same,T/C,"endpoint: median survival time, dose: 15.6 micrograms/kg/injection, schedule: Q03HX024 (sc), vehicle: saline + alcohol",98 % of control
same,T/C,"endpoint: median survival time, dose: 16.0 micrograms/kg/injection, schedule: Q03HX024 (oral), vehicle: saline + alcohol",98 % of control and 101 % of control
same,T/C,"endpoint: median survival time, dose: 31.2 micrograms/kg/injection, schedule: Q03HX008 (ip), vehicle: saline + alcohol",117 % of control
same,T/C,"endpoint: median survival time, dose: 31.2 micrograms/kg/injection, schedule: Q03HX024 (ip), vehicle: saline + alcohol",157 % of control
same,T/C,"endpoint: median survival time, dose: 31.2 micrograms/kg/injection, schedule: Q03HX024 (sc), vehicle: saline + alcohol",103 % of control
same,T/C,"endpoint: median survival time, dose: 31.3 micrograms/kg/injection, schedule: Q03HX024 (oral), vehicle: saline + alcohol",110 % of control
same,T/C,"endpoint: median survival time, dose: 62.5 micrograms/kg/injection, schedule: Q03HX024 (ip), vehicle: saline + alcohol",162 % of control
same,T/C,"endpoint: median survival time, dose: 62.5 micrograms/kg/injection, schedule: Q03HX024 (sc), vehicle: saline + alcohol",165 % of control
O=C(O)c1cccc(F)c1O,T/C,[1],97 % of control
same,T/C,[2],97 % of control
C1=CCNCC1,T/C,[1],101 % of control
same,T/C,[2],98 % of control
same,T/C,[3],103 % of control
O=P(O)(O)C(Cl)(Cl)Cl,T/C,"endpoint: mean survival time, dose: 50.0 mg/kg/injection, schedule: Q01DX009 (ip), vehicle: saline",100 % of control
same,T/C,"endpoint: mean survival time, dose: 100.0 mg/kg/injection, schedule: Q01DX009 (ip), vehicle: saline",96 % of control
same,T/C,"endpoint: mean survival time, dose: 100.0 mg/kg/injection, schedule: Q04DX002 (ip), vehicle: saline",92 % of control
same,T/C,"endpoint: mean survival time, dose: 200.0 mg/kg/injection, schedule: Q01DX009 (ip), vehicle: saline",96 % of control
same,T/C,"endpoint: mean survival time, dose: 200.0 mg/kg/injection, schedule: Q04DX002 (ip), vehicle: saline",99 % of control
CCCCCCCCCCCCCCS(=O)(=O)CCCl,T/C,"endpoint: mean survival time, dose: 100.0 mg/kg/injection, schedule: Q04DX003 (ip), vehicle: carboxymethylcellulose (CMC)",98 % of control
same,T/C,"endpoint: mean survival time, dose: 200.0 mg/kg/injection, schedule: Q04DX003 (ip), vehicle: carboxymethylcellulose (CMC)",94 % of control
same,T/C,"endpoint: mean survival time, dose: 400.0 mg/kg/injection, schedule: Q04DX003 (ip), vehicle: carboxymethylcellulose (CMC)",94 % of control
O=C(C=C(C(F)(F)F)C(F)(F)F)c1cc(Cl)ccc1Cl,T/C,"endpoint: mean survival time, dose: 12.5 mg/kg/injection, schedule: Q01DX009 (ip), vehicle: saline with Tween-80",110 % of control
same,T/C,"endpoint: mean survival time, dose: 12.5 mg/kg/injection, schedule: Q04DX003 (ip), vehicle: saline with Tween-80",97 % of control
same,T/C,"endpoint: mean survival time, dose: 25.0 mg/kg/injection, schedule: Q01DX009 (ip), vehicle: saline with Tween-80",102 % of control
same,T/C,"endpoint: mean survival time, dose: 25.0 mg/kg/injection, schedule: Q04DX003 (ip), vehicle: saline with Tween-80",100 % of control
same,T/C,"endpoint: mean survival time, dose: 50.0 mg/kg/injection, schedule: Q04DX003 (ip), vehicle: saline with Tween-80",105 % of control
